Data on 85 molecules can be found in PubChem BioAssay AID1645864 (Buhrlage Lab, Dana-Farber Cancer Institute and Novartis …, 2021).

The source made the active and inactive calls.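 Rule for the calls: active = maximal inhibition of USP17 at or above 30% in the confirmation dose-response, a value not among the printed readouts; inactive = the rest.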

Broadly, the IC50 is the concentration at which inhibition is half-maximal.

Chain of Ubiquitin carboxyl-terminal hydrolase 17-like protein 5 (Homo sapiens) (A8MUK1 whole entry, looked up): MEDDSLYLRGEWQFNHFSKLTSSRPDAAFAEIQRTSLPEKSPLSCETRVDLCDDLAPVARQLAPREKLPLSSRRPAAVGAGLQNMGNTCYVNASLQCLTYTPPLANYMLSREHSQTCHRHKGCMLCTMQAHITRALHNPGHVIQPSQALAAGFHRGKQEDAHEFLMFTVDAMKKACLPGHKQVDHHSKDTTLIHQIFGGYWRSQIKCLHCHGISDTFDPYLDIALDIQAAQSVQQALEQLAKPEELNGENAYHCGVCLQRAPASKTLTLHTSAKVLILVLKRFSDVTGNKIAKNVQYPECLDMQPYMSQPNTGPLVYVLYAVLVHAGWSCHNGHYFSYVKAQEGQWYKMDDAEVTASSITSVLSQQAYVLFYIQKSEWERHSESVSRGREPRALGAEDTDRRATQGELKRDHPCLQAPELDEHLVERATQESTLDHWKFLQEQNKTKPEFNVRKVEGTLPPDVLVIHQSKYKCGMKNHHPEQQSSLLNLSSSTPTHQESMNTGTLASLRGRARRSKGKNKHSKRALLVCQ

The experiment addresses Ubiquitin carboxyl-terminal hydrolase 17-like protein 5 (Homo sapiens) (UniProt A8MUK1). In words: ubiquitin-specific protease 17 inhibitors, concentration series, biochemical, verification of primary actives (AID 1645864). The note with it: purified USP17, ubiquitin-rhodamine cleavage fluorescence, 3 h.
As for `COc1cc([C@@H]2c3cc4c(cc3C[C@@H]3COC(=O)[C@H]32)OCO4)cc(OC)c1OC`, the IC50 was 17.3 µM. As for `O=C(Nc1cccc(-c2nc3ccccc3[nH]2)c1)c1cc2ccccc2oc1=O`, the IC50 is 0.429 µM.

As for `O=C(NC1(O)C(=O)c2ccccc2C1=O)c1cccc2c1-c1ccccc1C2=O`, the half-inhibitory concentration (IC50) is 11.2 µM. `O=S(=O)(c1ccc(F)cc1)N1CCCC1c1ccnc(Nc2cnccn2)n1` (stereo not given): the IC50 was > 50 µM (inactive). On to `CC(NC(=O)c1ccccc1)c1nc2ccccc2n1CC(=O)Nc1ccc2c(c1)OCO2` (stereo not given), for which the IC50 was 2.25 µM. In the case of `CC(=O)N1CCc2cc(S(=O)(=O)NCc3ccc(C)cc3)ccc21`, the IC50 was > 50 µM (inactive). On to `Clc1cccc(N2CCN(c3ncnc4nc[nH]c34)CC2)c1`, for which the IC50 is > 50 µM (inactive).

On to `Cc1ccc2c(c1)c(=O)c(C(=O)c1ccccc1)cn2CC(=O)Nc1ccc2c(c1)OCCO2`, for which the IC50 was 3.16 µM.

For `CC(=O)Nc1cc(-c2cccc(O)c2)cn2c(-c3cnn(C)c3)cnc12`, the concentration for half-maximal inhibition (IC50) was 3.57 µM. The value for `Cc1sc(NC(=O)CNc2ccccc2)nc1-c1ccc2c(c1)CCN2C(=O)C(C)C` was > 50 µM (inactive); that for `CCC1=C(c2ccc(C)cc2)S(=O)(=O)NC1=NCC(=O)NCc1ccccc1F` was 35.3 µM. As for `Cc1cnc2nc3c(cc2c1)CN(S(=O)(=O)c1cc(F)ccc1C)CC3`, the IC50 was > 50 µM (inactive).

On to `COc1cc(Cl)c(C)cc1NC(=O)Cn1c(=O)n(CC(=O)NCc2ccco2)c(=O)c2ccccc21`, for which the IC50 was 2.37 µM.

Consider `Cc1ccc2c(=O)c(C(=O)Nc3ccccc3)cn(CC(=O)NC3CCCCC3)c2n1`, for which the IC50 is below 0.05 µM. As for `O=C(Nc1nc2ccccc2s1)c1ccc2c(c1)C(=O)N(Cc1cccnc1)C2=O`, the 50% inhibitory concentration (IC50) is 4.06 µM.

As for `Cc1ccccc1Cc1nc(-c2ccc(=O)[nH]c2)no1`, the IC50 was > 50 µM (inactive). Turning to `CCn1c(SCC(=O)N2c3ccccc3CC2C)nnc1-c1ccc2c(c1)OCCO2` (stereo not given), the half-maximal inhibitory concentration (IC50) was 34.4 µM. On to `O=C(Nc1ccc2c(c1)OCCO2)c1ccc(N2CCCCC2)nn1`, for which the IC50 is > 50 µM (inactive).

Consider `Cc1cc(NC(=O)Cn2c(=O)n(CCCCC(=O)NCc3ccco3)c(=O)c3ccccc32)ccc1Br`, for which the IC50 is 2.84 µM. In the case of `Cc1c(Cl)cccc1NC(=O)Cn1c(=O)c2ccccc2n2nncc12`, the IC50 is > 50 µM (inactive).

Take `Cc1nc2ccc(NC(=O)COc3ccccc3[N+](=O)[O-])cc2s1`: the concentration for half-maximal inhibition (IC50) is 3.26 µM. On to `Cc1ccc2c(Nc3ccc(CC(=O)O)cc3)c(C(=O)N3CCCC3)cnc2n1`, for which the IC50 is > 50 µM (inactive). The value for `COc1ccc(C)cc1NC(=O)C1CC(=O)Nc2nc3ccccc3n21` (stereo not given) was 33.9 µM; that for `Clc1cncc(Oc2nc(-c3cccnc3)nc3ccccc23)c1` was 3.31 µM; that for `O=C(CN1C=NC2=NS(=O)(=O)c3ccccc3N21)Nc1cc(F)ccc1F` was 33.4 µM. The value for `COc1cccc(C(=O)Nc2ccc(-n3cnnn3)cc2)c1` was > 50 µM (inactive); that for `COc1ccc(C(=O)Nc2n[nH]c(C)c2-c2cccc(C)c2)c(OC)c1` was 2.74 µM. With `COc1cccc(/C=C/C(=O)Nc2ccc(C)c(Cl)c2)c1`, the IC50 is 43.4 µM. In the case of `CCC(=O)N1c2ccccc2NC2=C(C(=O)CC(c3ccccc3OCc3ccccc3)C2)C1c1ccccc1` (stereo not given), the IC50 was 4.4 µM. In the case of `COc1ccccc1NC(=O)CNC(=O)c1nn(-c2ccc(OC)c(OC)c2)c(=O)c2ccccc12`, the IC50 was 29.4 µM. With `COc1ccccc1-c1nc(-c2cn(-c3ccc(C)cc3)nn2)no1`, the concentration for half-maximal inhibition (IC50) was 28.9 µM.

On to `O=C(CSc1nncc2ccccc12)Nc1ccc2c(c1)OCO2`, for which the IC50 was > 50 µM (inactive).

`COC1C(O)=C2C(=O)O/C(C)=C/C=C/C=C/C=C/CC(c3ccccc3)NC(=O)/C=C/C=C/C=C\C=C\C2(C)C1O` (stereo not given): the IC50 was > 50 µM (inactive). For `COc1c(O)c(O)c2c(=O)cc(-c3ccc(O)cc3)oc2c1OC`, the half-inhibitory concentration (IC50) was 38.5 µM.

As for `c1csc(-c2nc(Nc3ccc4c(c3)CCC4)c3ccccc3n2)c1`, the IC50 is 4.19 µM. As for `COc1ccc(-c2[nH]c3ccccc3c2SCCNC(=O)c2ccc(S(=O)(=O)N3CCOCC3)cc2)cc1`, the IC50 is 37.4 µM.

Turning to `CC(C)Cc1nc2sc3c(NCc4ccccc4)ncnc3c2c2c1COC(C)(C)C2`, the 50% inhibitory concentration (IC50) was 6.77 µM. For `CCCCCC(O)c1c(O)cc2c(c1O)C(=O)c1c(O)cc(O)cc1C2=O` (stereo not given), the IC50 is > 50 µM (inactive). `Cc1ccc2[nH]c(=O)c(CN(CC3COCCO3)S(=O)(=O)c3ccc(F)cc3)cc2c1` (stereo not given): the IC50 is 4.16 µM.

For the molecule `CCOc1ccc(-c2ccc3nnc(SCC(=O)Nc4cccc(C(C)=O)c4)n3n2)cc1`, the IC50 was 4.26 µM. As to `CC(C)N1CC[C@@H]2[C@H](C1)CN2C(=O)Nc1cccc(F)c1`, the IC50 is > 50 µM (inactive). For `O=C(COC(=O)c1cc(Cl)c2c(c1)OCO2)Nc1ccc2[nH]c(=O)[nH]c2c1`, the IC50 was 4.92 µM. Consider `Clc1ccccc1CSc1nnc(C2CCCCC2)n1Cc1ccccc1`, for which the concentration for half-maximal inhibition (IC50) is 40.8 µM. Take `CN1CCN(C(=O)c2cc(-c3ccn(CC4CC4)n3)n3ccccc23)CC1`: the IC50 was > 50 µM (inactive). The value for `CCOc1ccc(CCNC(=O)c2ccc3c(c2)N(CC)C(=O)c2ccccc2S3)cc1OCC` was > 50 µM (inactive). `O=C(CCCC(=O)c1ccccc1)Nc1ccc(F)cc1`: the 50% inhibitory concentration (IC50) is 29.7 µM. The value for `CN1CCN(c2ccc3nc(-c4ccccc4)c(-c4ccccc4)nc3c2)CC1` was > 50 µM (inactive). Regarding `CCNc1oc(-c2ccc(S(=O)(=O)N3CCCCC3)cc2)nc1C#N`, the 50% inhibitory concentration (IC50) is 24.2 µM.

Regarding `COc1ccccc1NS(=O)(=O)c1ccc2oc(SCC(=O)c3ccccc3)nc2c1`, the IC50 was > 50 µM (inactive).

For `CC(C)c1ccc(/C=C/C(=O)N2CCc3ccccc3C2)cc1`, the 50% inhibitory concentration (IC50) was 21.1 µM. As to `Cc1cc(C(=O)N2CCN(C3CCN(Cc4ccc(Cl)o4)CC3)C(=O)C2)c(C)o1`, the IC50 was > 50 µM (inactive). `CCN(CC)c1nc(F)c2c(c1F)S(=O)(=O)CCN2Cc1cccnc1`: the IC50 is > 50 µM (inactive). On to `COc1ccc(OC)c(NC(=O)CS(=O)(=O)c2cn(CC(=O)N3CCC(C)CC3)c3ccccc23)c1`, for which the IC50 is 27.2 µM. With `Cc1cccc(C(=O)N2CCc3cc(-c4nc(NC(=O)CNc5ccccc5)sc4C)ccc32)c1`, the IC50 was > 50 µM (inactive). `CCCC[C@@H](C)/C=C(C)/C=C(\C)C(=O)NC1=C[C@](O)(/C=C/C=C/C=C/C(=O)NC2=C(O)CCC2=O)[C@@H]2O[C@@H]2C1=O`: the half-inhibitory concentration (IC50) was 3.1 µM. For the molecule `O=C(Cn1cnc2c(cnn2-c2ccc(Cl)cc2)c1=O)NCc1ccccc1Cl`, the IC50 is 3.43 µM. With `NS(=O)(=O)c1cccc(NS(=O)(=O)c2ccc(/C=C/C(=O)OCC(=O)c3ccc(Br)cc3)cc2)c1`, the IC50 was > 50 µM (inactive). Consider `O=C(Nc1ccccc1)c1nc2c(s1)CCN(C(=O)c1ccccc1)CC2`, for which the IC50 was > 50 µM (inactive). Take `CC(C)(C)C(=O)C1C2C(=O)N(Cc3ccccc3)C(=O)C2C2c3ccccc3C=CN12` (stereo not given): the IC50 was > 50 µM (inactive). As to `Cc1ccc2nc(-c3cccc(-c4nc5ccc(C)cc5[nH]4)n3)[nH]c2c1`, the 50% inhibitory concentration (IC50) is 7.06 µM.

Regarding `Cn1c2ccccc2c(=O)c2c(=O)n(Cc3ccccc3)c(-c3ccco3)nc21`, the IC50 was 1.55 µM.

Regarding `COc1ccc(-c2nc3n(n2)C(CC(=O)Nc2cccc4ccccc24)C(=O)N3)cc1` (stereo not given), the IC50 was 8.65 µM. In the case of `O=C(Nc1ccc2c(c1)OCCO2)C1CCC(Cn2cnc3ccccc3c2=O)CC1` (stereo not given), the IC50 is > 50 µM (inactive). The value for `Cc1nc2nc(SCc3nc4ccccc4n3C)[nH]c2cc1Br` was 3.51 µM; that for `COc1cccc(-c2nc3cnccn3c2NCc2ccc3c(c2)OCO3)c1` was > 50 µM (inactive).

`COc1ccccc1OCCNC(=O)c1cc(C2CC2)nc2c1cnn2C(C)C`: the IC50 was > 50 µM (inactive). The value for `COc1ccc(CNC(=O)CN2C(=O)C(C)=C(c3ccc(C)cc3)S2(=O)=O)cc1` was > 50 µM (inactive); that for `CCOC(=O)c1ccc(S(=O)(=O)N2CCC(C(=O)OC(C)C(=O)Nc3cccc([N+](=O)[O-])c3)CC2)cc1` (stereo not given) was 7.35 µM.

For `NS(=O)(=O)c1cc(C(=O)OCC(=O)NC2CCCc3ccccc32)ccc1Cl` (stereo not given), the concentration for half-maximal inhibition (IC50) is 47.4 µM. For `CCc1ccccc1NC(=O)COc1ccccc1-c1nnc(-c2ccccc2)o1`, the 50% inhibitory concentration (IC50) is 25 µM.

For `COc1ccc(C(C)=O)cc1CC(=O)Nc1nc2ccccc2[nH]1`, the IC50 was > 50 µM (inactive). For the molecule `CN1C(=O)c2cc(NC(=O)c3ccccc3Cl)ccc2Oc2ccccc21`, the IC50 was > 50 µM (inactive).

As to `Cc1cc(N2CCN(c3ncccn3)CC2)nc2ccc(NC(=O)c3ccncc3)cc12`, the IC50 was 2.99 µM. In the case of `CC(C)N(C(=O)Cn1c(=O)[nH]c2ccccc21)c1ccccc1`, the IC50 was > 50 µM (inactive). As to `Clc1ccc(C[n+]2cc(-c3ccc(Cl)cc3)n3c2CCC3)cc1`, the IC50 is > 50 µM (inactive). The value for `O=C(COc1cccc(-n2cnnn2)c1)Nc1ccc2c(c1)OCCO2` was > 50 µM (inactive).

Turning to `CC(C)CCCCCCCCCCC(=O)N(C)[C@H](CO)C(=O)N[C@H](C)C(=O)NCC(=O)N(C)C1C(=O)N[C@@H](C)C(=O)NC(C(=O)O)Cc2ccc(O)c(c2)-c2cc1ccc2O` (stereo not given in full), the IC50 was > 50 µM (inactive).

For `CCCCCCCCCC(CCCCCCCCCC(=O)O)O[C@H]1O[C@@H](COC(C)=O)[C@H](O)[C@@H](O)[C@H]1OC(=O)CC(=O)O` (stereo not given in full), the IC50 is 22.8 µM. Consider `Cc1ccccc1Cn1ccc2ccn(Cc3cccnc3)c2c1=O`, for which the IC50 was > 50 µM (inactive). With `CN(C(=O)c1cccc2cccnc12)c1nc2c(s1)CCc1occc1-2`, the IC50 was 24.9 µM. Turning to `CCOC(=O)c1ccc(NC(=O)Cn2c(=O)n(CC(=O)NCCc3ccc(OC)c(OC)c3)c(=O)c3sccc32)cc1`, the IC50 is 2.51 µM. As for `O=C(Nc1cccc(Br)c1)c1cc(-c2cccnc2)n[nH]1`, the IC50 is 4.2 µM. On to `O=C(OCc1ccc(F)cc1)c1ccc2ccccc2n1`, for which the IC50 was > 50 µM (inactive).

As for `Cc1ccccc1C(=O)c1ccc(C(=O)NC2CCCCCC2)[nH]1`, the half-maximal inhibitory concentration (IC50) was 2.96 µM. With `COc1ccc(CNC(=O)c2ccccc2N2C(=O)N3CCc4c([nH]c5ccccc45)[C@@]3(C)C2=O)cc1`, the IC50 is 29.8 µM.
